Measurements as given in patent US10266544B2, “Aryl substituted aminomethyl spectinomycin analogs as antibacterial agents” (ST. JUDE CHILDREN'S RESEARCH HOSPITAL, INC., priority 2013, dated 2019).
Counter-ions that a name gives are not always drawn. Like-named read-outs stand apart in the source and are kept apart here.

Key:
Assay type in all cases: cell-based
[1] = test system: Haemophilus influenza (ATCC 49247); assay: microbe, parasite or virus in culture; details: ATCC49247; Haemophilus influenza; 4 μg per disc; range of at least two experiments; read-out: Zone of inhibition H.i.
[2] = test system: Proteus mirabilis (ATCC 25933); assay: MIC determination, microbroth dilution; details: ATCC25933
[3] = test system: Stenotrophomonas maltophilia (ATCC 13637); assay: MIC determination, microbroth dilution
[4] = test system: acinetobacter baumannii (ATCC 19606); assay: MIC determination, microbroth dilution; details: ATCC19606
[5] = test system: live vaccine strain (LVS) of Francisella tularensis; assay: microbe, parasite or virus in culture; details: Francisella tularensis, read-out: MIC F.t.
[6] = test system: Neisseria gonorrhoeae (ATCC 49226); assay: Disc diffusion assay; details: ATCC49226, 4 μg per disc, read-out: Zone of inhibition N.g.
[7] = test system: Escherichia coli (ATCC 700926); assay: MIC determination, microbroth dilution; details: ATCC700926; Escherichia coli (ATCC 700926); read-out: MIC E.c.
[8] = test system: M. tuberculosis clinical isolates; assay: microbe, parasite or virus in culture; details: Mycobacterium tuberculosis
[9] = test system: Neisseria meningitides (ATCC 13077); assay: Disc diffusion assay; details: ATCC13077, 4 μg per disc, read-out: Zone of inhibition N.m.
Listeria monocytogenes = assay: MIC determination (Table 6)
[10] = test system: Klebsiella pneumoniae (ATCC 33495); assay: MIC determination, microbroth dilution; details: ATCC33495
[11] = test system: Bacillus anthracis, Sterne 34F2; assay: microbe, parasite or virus in culture; details: STERNE34F2, read-out: MIC B.a.
[12] = test system: Bacillus subtilis (ATCC 23857); assay: MIC determination, microbroth dilution; details: ATCC23857; Bacillus subtilis (ATCC 23857); read-out: MIC B.s.
[13] = test system: MRSA, Staphylococcus aureus (NRS70); assay: MIC determination, microbroth dilution; details: Staphylococcus aureus (NRS70); read-out: MIC MRSA
E. coli K12 ΔtolC = assay: microbe, parasite or virus in culture; details: Escherichia coli, read-out: MIC E.c. Δtolc
[14] = test system: Staphylococcus aureus (ATCC 29213); assay: MIC determination, microbroth dilution
[15] = test system: Legionella pneumophila (ATCC 33153); assay: microbe, parasite or virus in culture; details: ATCC33153, 72 h, read-out: Zone of inhibition L.p.
Bacillus anthracis = assay: microbe, parasite or virus in culture; details: read-out: MIC B.a.
[16] = test system: Streptococcus pneumoniae clinical isolates representing several serotypes; assay: MIC determination, Streptococcus pneumoniae panel of clinical isolates (Table 7); details: Streptococcus pneumoniae
[17] = test system: Pseudomonas aeruginosa (PA01); assay: MIC determination, microbroth dilution
[18] = test system: Enterococcus faecalis (ATCC 33186); assay: MIC determination, microbroth dilution; details: ATCC33186; Enterococcus faecalis (ATCC 33186); read-out: MIC E.f.
[19] = test system: Burkholderia cepacia (ATCC 25416); assay: MIC determination, microbroth dilution; details: Burkholderia cepacia
Yersinia pestis = assay: microbe, parasite or virus in culture; details: read-out: MIC Y.p.
[20] = test system: Streptococcus pyogenes (ATCC 700294); assay: MIC determination, microbroth dilution
[21] = test system: Streptococcus pneumoniae (R6); assay: MIC determination, microbroth dilution
Moraxella catarrhalis = assay: MIC determination (Table 6)
[22] = test system: Proteus vulgaris (ATCC 33420); assay: MIC determination, microbroth dilution; details: ATCC33420
[23] = test system: Neisseria gonorrhoeae (ATCC 49226); assay: Agar MIC determination (Alamar Blue); details: ATCC49226, agar MIC, read-out: MIC N.g.
[24] = ATCC25416, read-out: MIC B.c., Burkholderia cepacia (ATCC 25416)
[25] = ATCC25416, read-out: MIC B.c., Burkholderia cepacia, Table 6
[26] = ATCC700294, Streptococcus pyogenes (ATCC 700294), read-out: MIC S. py.
[27] = Streptococcus pneumoniae (R6), read-out: MIC S. pn.
[28] = Stenotrophomonas maltophilia, ATCC13637, read-out: MIC S.m.
[29] = ATCC29213, Staphylococcus aureus (ATCC 29213), read-out: MIC S.a.

CN[C@@H]1[C@H](O)[C@H](NC)[C@H]2O[C@]3(O)[C@H](O[C@@H]2[C@H]1O)O[C@H](C)C[C@@]3(O)CNCCc1ccccc1 [compound 6, 3′-(R)-3′-(phenethylaminomethyl)dihydrospectinomycin Trihydrochloride]
zone of inhibition at 4 µg/disc [1]: 14 mm | MIC [2]: > 200 µg/mL | MIC ([3]; ATCC13637, Stenotrophomonas maltophilia (ATCC 13637), read-out: MIC S.m.): 1.6 µg/mL | MIC [4]: > 200 µg/mL | MIC [5]: 1.6 µg/mL | zone of inhibition at 4 µg/disc [6]: 16 mm | MIC [7]: 6.3 to 12.5 µg/mL | MIC ([8]; H37RV, read-out: MIC H37Rv): 1.6 µg/mL | MIC ([8]; read-out: MIC TN022): 3.1 µg/mL | MIC ([8]; read-out: MIC TN026): 3.1 µg/mL | zone of inhibition at 4 µg/disc [9]: 16 mm | MIC (Listeria monocytogenes): 3.1 µg/mL | MIC [10]: 25 to 50 µg/mL | MIC [11]: 6.3 to 12.5 µg/mL | MIC [12]: 1.6 µg/mL | MIC [13]: 12.5 to 25 µg/mL | MIC (E. coli K12 ΔtolC): 3.1 to 6.3 µg/mL | MIC ([14]; Staphylococcus aureus, ATCC29213, read-out: MIC S.a.): 6.3 to 12.5 µg/mL | zone of inhibition at 4 µg/disc [15]: 36 mm | MIC (Bacillus anthracis): 6.3 to 12.5 µg/mL | MIC ([16]; BAA1407, S. pneumoniae BAA-1407, Macrolide Resistant, read-out: MIC BAA-1407): 12.5 µg/mL | MIC ([16]; S. pneumoniae A66.1x, Drug Susceptible, read-out: MIC A66.1x): 3.1 µg/mL | MIC ([16]; S. pneumoniae BHN97x, Drug Susceptible, read-out: MIC BHN97x): 3.1 µg/mL | MIC ([16]; S. pneumoniae D39X, Drug Susceptible, read-out: MIC D39X): 3.1 µg/mL | MIC ([16]; S. pneumoniae Daw7, PenG Resistant, read-out: MIC Daw7): 6.3 µg/mL | MIC ([16]; S. pneumoniae Daw8, PenG Resistant, read-out: MIC Daw8): 6.3 µg/mL | MIC ([16]; S. pneumoniae Daw9, PenG Resistant, read-out: MIC Daw9): 6.3 µg/mL | MIC ([16]; S. pneumoniae Daw62, PenG Resistant, read-out: MIC Daw62): 6.3 µg/mL | MIC ([16]; S. pneumoniae Daw64, PenG Resistant, read-out: MIC Daw64): 6.3 µg/mL | MIC ([16]; S. pneumoniae OVA6, Macrolide Resistant, read-out: MIC OVA6): 3.1 µg/mL | MIC ([16]; S. pneumoniae T4X, Drug Susceptible, read-out: MIC T4X): 3.1 µg/mL | MIC [17]: ≥ 200 µg/mL | MIC [18]: 12.5 µg/mL | MIC [19, 24]: > 200 µg/mL | MIC [19, 25]: > 200 µg/mL | MIC (Yersinia pestis): 200 µg/mL | MIC [20, 26]: 3.1 µg/mL | MIC [21, 27]: 3.1 µg/mL | MIC ([21]; Streptococcus pneumoniae, S. pneumoniae R6, Drug Susceptible, read-out: MIC R6): 6.3 µg/mL | MIC (Moraxella catarrhalis): 0.4 µg/mL | MIC [22]: 50 to 100 µg/mL

CN[C@@H]1[C@H](O)[C@H](NC)[C@H]2O[C@]3(O)[C@H](O[C@@H]2[C@H]1O)O[C@H](C)C[C@@]3(O)CNCc1ccc(F)c(F)c1 [compound 12, 3′-(R)-3′-[(3,4-difluoro)benzylaminomethyl)]dihydrospectinomycin Trihydrochloride]
zone of inhibition at 4 µg/disc [1]: 16 to 17 mm | MIC [2]: > 200 µg/mL | MIC [3, 28]: 12.5 to 25 µg/mL | MIC [4]: ≥ 200 µg/mL | MIC [5]: 3.1 to 6.3 µg/mL | zone of inhibition at 4 µg/disc [6]: 15 to 17 mm | MIC [7]: 25 to 50 µg/mL | MIC ([8]; H37RV, read-out: MIC H37Rv): 50 µg/mL | zone of inhibition at 4 µg/disc [9]: 17 mm | MIC (Listeria monocytogenes): 6.3 to 12.5 µg/mL | MIC [10]: > 200 µg/mL | MIC [11]: 50 µg/mL | MIC [12]: 25 to 50 µg/mL | MIC [13]: 200 µg/mL | MIC (E. coli K12 ΔtolC): 12.5 to 25 µg/mL | MIC [14, 29]: 100 to 200 µg/mL | MIC (Bacillus anthracis): 50 µg/mL | MIC [17]: ≥ 200 µg/mL | MIC [18]: 50 µg/mL | MIC [19, 24]: ≥ 200 µg/mL | MIC [19, 25]: ≥ 200 µg/mL | MIC (Yersinia pestis): 200 µg/mL | MIC [20, 26]: 3.1 µg/mL | MIC [23]: 25 to 50 µg/mL | MIC [21, 27]: 6.3 µg/mL | MIC (Moraxella catarrhalis): 6.3 to 12.5 µg/mL | MIC [22]: > 200 µg/mL

CN[C@@H]1[C@H](O)[C@H](NC)[C@H]2O[C@]3(O)[C@H](O[C@@H]2[C@H]1O)O[C@H](C)C[C@@]3(O)CNCc1ccccn1 [compound 16, 3′-(R)-3′-(2-pyridinylmethylaminomethyl)dihydrospectinomycin Tetrahydrobromide]
zone of inhibition at 4 µg/disc [1]: 7 mm | MIC [2]: > 200 µg/mL | MIC [3, 28]: 12.5 to 25 µg/mL | MIC [4]: > 200 µg/mL | zone of inhibition at 4 µg/disc [6]: 6 mm | MIC [7]: 100 to 200 µg/mL | MIC ([8]; H37RV, read-out: MIC H37Rv): 12.5 µg/mL | zone of inhibition at 4 µg/disc [9]: 13 mm | MIC (Listeria monocytogenes): 25 µg/mL | MIC [10]: 200 µg/mL | MIC [11]: 50 µg/mL | MIC [12]: 50 µg/mL | MIC [13]: > 200 µg/mL | MIC (E. coli K12 ΔtolC): 50 µg/mL | MIC [14, 29]: 100 to 200 µg/mL | zone of inhibition at 4 µg/disc [15]: 34 mm | MIC (Bacillus anthracis): 50 µg/mL | MIC [17]: > 200 µg/mL | MIC [18]: 100 µg/mL | MIC [19, 24]: > 200 µg/mL | MIC [19, 25]: > 200 µg/mL | MIC (Yersinia pestis): 100 µg/mL | MIC ([20]; Streptococcus pyogenes, ATCC700294, read-out: MIC S. py.): 12.5 to 25 µg/mL | MIC [23]: ≥ 200 µg/mL | MIC ([21]; Streptococcus pneumoniae, read-out: MIC S. pn.): 12.5 µg/mL | MIC (Moraxella catarrhalis): 12.5 µg/mL | MIC [22]: > 200 µg/mL
